# Patent publication US9446043B2, “Pharmaceutical combinations” (Novartis AG, priority 2012, dated 2016)
# How the values were obtained:
# [1] = system: pMARCKS; assay: Protein immunoblot following drug treatment of uveal melanoma cell lines; assay type: cell-based, human; details: 92.1 and OMM-1 cells, 0.5 μM per agent, 2-48 hours
# Method: Uveal melanoma cells were incubated with 0.5 μM AEB071, 0.5 μM COMPOUND B, both compounds or DMSO alone. Cells were lysed after 2, 4, 8, 24 or 48 hours of treatment in M-PER mammalian protein extraction buffer containing PhosStop Phosphatase inhibitor cocktail tablet (Roche Diagnostics #04 906 837 001) and Complete Protease Inhibitor cocktail tablet (Roche Diagnostics #11 836 145 001). Proteins were separated on a 4-12% Bis-Tris NuPAGE SDS gel (Invitrogen #WG1403Bx10) and subsequently transferred to a nitrocellulose membrane using a dry blotting system (Invitrogen iBLOT). Proteins were detected with 1:1000 dilutions of anti-p44/42 MAPK (Cell Signaling Technologies #4377), anti-pMARCKS (Cell Signaling Technologies #2741), anti-pMEK1/2 (Cell Signaling Technologies #9121) and anti-Beta Actin (Ambion#AM4202). Beta actin was detected using the appropriate secondary antibody and an infrared dye detection system (Odyssey IRDye, LI-COR) according to the manufacturer's protocol. All other proteins were detected using an anti-rabbit-HRP secondary antibody and developed with SuperSignal West Dura Chemiluminescent Substrate (Thermo Scientific #34076) on a Syngene imaging system. The biochemical effect of these agents was assessed following treatment with 0.5 μM AEBO071, 0.5 μM COMPOUND B or 0.5 μM of each agent together in the uveal melanoma cell lines 92.1 and OMM-1. […]
# [2] = system: OMM1 uveal melanoma cell line (GNA11 mutation); assay: Proliferation measurement by xCELLigence; assay type: cell-based; details: OMM1 cells, 0.5 μM per compound, 6 days
# Method: (§1) 92.1 and OMM-1 uveal melanoma cell lines were cultured in Roswell Park Memorial Institute medium (RPMI 1640) (American Type Culture Collection (ATCC #30-2001)) supplemented with 10% fetal bovine serum and incubated at 37° C./5% carbon dioxide.
# (§2) Compound stocks of 3-(1H-indol-3-yl)-4-[2-(4-methyl-piperazin-1-yl)-quinazolin-4-yl]-1H-pyrrole-2,5-dione, hereafter AEB071, and of 6-(4-bromo-2-fluorophenylamino)-7-fluoro-3-methyl-3H-benzoimidazole-5-carboxylic acid (2-hydroxyethoxy)-amide, hereafter COMPOUND B, were prepared in dimethylsulfoxide (DMSO) at a final concentration of 10 mM.
# (§3) Growth of uveal cells was continuously monitored with the xCELLigence real-time cell analyzer. E-plates (Roche #05 232 368 001) were incubated with cells added at a final concentration of 3000 cells per 100 μl per well. Impedance was measured every 2 hours for 24 hours. […] Impedance was measured every 2 hours over 7 days. Data was normalized to day 0 prior to compound addition.
# (§4) The effect of 3-(1H-indol-3-yl)-4-[2-(4-methyl-piperazin-1-yl)-quinazolin-4-yl]-1H-pyrrole-2,5-dione (COMPOUND A) and 6-(4-bromo-2-fluorophenylamino)-7-fluoro-3-methyl-3H-benzoimidazole-5-carboxylic acid (2-hydroxyethoxy)-amide (COMPOUND B) on uveal melanoma proliferation in vitro is shown (FIG. 1).
# [3] = system: 92.1 human uveal melanoma xenograft (GNAQ mutation); assay: In vivo activity in the 92.1 human uveal melanoma nude mouse xenograft model
# Method: NVP-AEB071 (also referred to as AEB071) (acetate salt, 87.96% free base) powder was added to 20% polyethyleneglycol 400 (PEG400): 4.5% 0.1M HCl: 75.5% of 5% dextrose in water (D5W), designated as Vehicle 1, and stirred to obtain a clear red solution. NVP-COMPOUND B (also referred to as COMPOUND B) was formulated as a homogenous suspension in 1% carboxymethyl cellulose: 0.5% Tween® 80 in deionized water. A fresh suspension was prepared once per week for each compound and stored at 4° C.
# The animals were fed ad libitum water (reverse osmosis, 1 ppm Cl) and NIH 31 Modified and Irradiated Lab Diet® consisting of 18.0% crude protein, 5.0% crude fat, and 5.0% crude fiber. The mice were housed on irradiated Enrich-O'Cobs™ Laboratory Animal Bedding in static microisolators on a 12-hour light cycle at 20-22° C. (68-72° F.) and 40-60% humidity. DRS-NC specifically complies with the recommendations of the Guide for Care and Use of Laboratory Animals with respect to restraint, husbandry, surgical procedures, feed and fluid regulation, and veterinary care. The animal program at DRS-NC is accredited by the Association for Assessment and Accreditation of Laboratory Animal Care (AAALAC) International, which assures compliance with accepted standards for the care and use of laboratory animals.
# The 92.1 uveal melanoma cells were harvested during exponential growth, and re-suspended in cold PBS (phosphate buffered saline) with 50% Matrigel™ (BD Biosciences). Each mouse was inoculated subcutaneously in the right flank with 5×10^6 cells (0.2 mL of cell suspension). Tumors were calipered in two dimensions to monitor growth as their mean volume approached the desired 100-150 mm^3 range. Tumor size, in mm^3, was calculated from: Tumor Volume=(w^2×l)/2 where w=width and l=length, in mm, of the tumor. Tumor weight could be estimated with the assumption that 1 mg was equivalent to 1 mm^3 of tumor volume. Twelve days after tumor cell implantation, on Day 1 (D1) of the study, animals with individual tumor volumes of 108-256 mm^3 were sorted into six groups (n=10/group) with group mean tumor volumes of 153-159 mm^3.
# AEB071 was administered at 91 mg/kg three times daily (TID) dosing for 21 days. Efficacy was determined from tumor growth inhibition on day 17, the last day with all mice on the study. The activity was calculated at tumor/control (T/C), the percent mean tumor volume change from day 1 to day 17 in drug treated mice (ΔT) versus vehicle treated mice, or as a T/T0, the percent reduction in the group mean tumor volume from day 1. […] Addition of COMPOUND B dosed twice daily at 3.5 mg/kg to the AEB071 regimen yielded a −22% T−T0 (p<0.001 median activity, but not significant compared to AEB071 alone). COMPOUND B had no activity in its own right with a T/C of 84%.
# Mice were dosed for 21 days, then treatment ceased and tumor outgrowth was monitored. […] Tumor growth delay was not calculated because two or more tumors per group became static after an initial growth period, but the trend of tumor outgrowth rate indicated the AEB071 plus COMPOUND B combination tumors grew out slower than AEB071 single agent, COMPOUND B single agent treated tumors were not monitored due to lack of efficacy.
# The effectiveness of the combination increased in a dose dependent manner, with increasing AEB071 dose in combination with COMPOUND B yielding a greater magnitude of response. AEB071 was administered at […] and 22.74 mg/kg, (equivalent to 80, 40 and 20 mg/kg free base) with three times daily dosing (TID) for 21 days in combination with COMPOUND B at 3.5 mg/kg with twice daily dosing in the 92.1 human uveal melanoma nude mouse xenograft model. Efficacy was determined from tumor growth inhibition on day 22. The activity was calculated at tumor/control (T/C), the percent mean tumor volume change from day 1 to day 22 in drug treated mice (ΔT) versus vehicle treated mice, or as a T/T0, the percent reduction in the group mean tumor volume from day 1. […]
# [4] = system: 92.1 uveal melanoma cell line; assay: Cell proliferation in combination dose matrix (Cell Titer Glo, Chalice); assay type: cell-based, human; details: 92.1 cells; for anti-proliferative response in dose matrix: 0.039 μM to 10 μM; for inhibition at 0.16 µM: Homo sapiens, 0.16 μM of each agent, 144 hours, Cell Titer Glo, read-out: growth inhibition (FIG. 2, top panel)
# Method: Cells were seeded at a density of 3000 cells per 100 μl of medium per well in 96-well plates (Costar #3904) and incubated overnight prior to compound addition. Compound stock was freshly prepared in the appropriate culture medium and manually added to the plates by electronic multichannel pipette in three replicates. Cells were treated with compound alone or with a combination of AEB071 and COMPOUND B diluted 1:2 for a ten point dilution ranging from 0.039 μM to 10 μM. The viability of cells was assessed at the time of compound addition and after 144 hours of treatment by quantification of cellular ATP levels via Cell Titer Glo (Promega #G7571) according to the manufacturer's protocol. Plates were read on a luminescence plate reader (Victor X4, Perkin Elmer). Fractional inhibition of growth was calculated using XLfit and normalized to no compound wells. For growth inhibition, day 0 values were subtracted before calculating inhibition. Data was analyzed by Chalice software
# (http://chalice.zalicus.com/documentation/analyzer/index.jsp) to calculate growth inhibition, inhibition and HSA excess.
# FIG. 2 provides a closer look at the patterns of synergy between the two agents in the 92.1 cell line. The dose matrix between the two agents is shown; the effect on cell growth relative to untreated cells is shown in the top panel, the excess inhibition (HSA) in the center panel and the growth inhibition relative to day zero normalization is shown in the bottom panel. Methods of calculations for growth inhibition, inhibition and HSA excess are known in the art.
# Inhibition and excess inhibition values for all dose combinations can be seen in FIG. 2. The growth rate of the cells during the […] assay was taken into account for the calculation of growth inhibition percent shown in FIG. 2, bottom panel. 100% indicated stasis, meaning the cells had neither grown nor died during the course of the assay, values in excess of 100 indicate death, 200 being complete cell death, and values below 100 indication growth from the start of the assay to the day 3 end point.
# [5] = system: 92.1 uveal melanoma cell line (GNAQ mutation); assay: Proliferation measurement by xCELLigence; assay type: cell-based, human; details: 92.1 cells, 0.5 μM per compound, 6 days
# Method: as §1, §2, §3, §4
# [6] = system: pERK1/2; assay: Protein immunoblot following drug treatment of uveal melanoma cell lines; assay type: cell-based, human; details: 92.1 and OMM-1 cells
# Method: (§5) Uveal melanoma cells were incubated with 0.5 μM AEB071, 0.5 μM COMPOUND B, both compounds or DMSO alone. Cells were lysed after 2, 4, 8, 24 or 48 hours of treatment in M-PER mammalian protein extraction buffer containing PhosStop Phosphatase inhibitor cocktail tablet (Roche Diagnostics #04 906 837 001) and Complete Protease Inhibitor cocktail tablet (Roche Diagnostics #11 836 145 001). Proteins were separated on a 4-12% Bis-Tris NuPAGE SDS gel (Invitrogen #WG1403Bx10) and subsequently transferred to a nitrocellulose membrane using a dry blotting system (Invitrogen iBLOT). Proteins were detected with 1:1000 dilutions of anti-p44/42 MAPK (Cell Signaling Technologies #4377), anti-pMARCKS (Cell Signaling Technologies #2741), anti-pMEK1/2 (Cell Signaling Technologies #9121) and anti-Beta Actin (Ambion#AM4202). Beta actin was detected using the appropriate secondary antibody and an infrared dye detection system (Odyssey IRDye, LI-COR) according to the manufacturer's protocol. All other proteins were detected using an anti-rabbit-HRP secondary antibody and developed with SuperSignal West Dura Chemiluminescent Substrate (Thermo Scientific #34076) on a Syngene imaging system.
# (§6) The biochemical effect of these agents was assessed following treatment with 0.5 μM AEBO071, 0.5 μM COMPOUND B or 0.5 μM of each agent together in the uveal melanoma cell lines 92.1 and OMM-1. The level of pMARCKS was attenuated (FIG. 3). […] The combination of AEB071 and COMPOUND B suppressed pathway components to a greater magnitude and duration compared to either single agent.
# [7] = system: pMEK1/2; assay: as above; assay type: cell-based, human; details: 92.1 and OMM-1 cells, 0.5 μM per agent, over time, clearly observed at 48 hours
# Method: as §5, §6
SMILES,level of pMARCKS [1],effect on growth of uveal melanoma cell line (xCELLigence) [2],mean tumor response during the dosing period ([3]; 21 days dosing (FIG. 5)),"T/C (tumor/control) ([3]; AEB071 22.7 mg/kg (20 mg/kg free base) TID for 21 days, day 22, non-significant) [%]","T/C (tumor/control) ([3]; AEB071 45.5 mg/kg (40 mg/kg free base) TID for 21 days, day 22, non-significant) [%]","T/C (tumor/control) ([3]; AEB071 90.95 mg/kg (80 mg/kg free base) TID for 21 days, day 22, p<0.05) [%]","T/C (tumor/control) ([3]; AEB071 (acetate salt) 91 mg/kg TID for 21 days, day 17, p<0.01) [%]","tumor progression after the dosing period ([3]; two weeks following the 21 day dosing period, followed >70 days (FIG. 5))",anti-proliferative response in dose matrix [4],inhibition at 0.16 µM [4] [%],effect on growth of uveal melanoma cell line (xCELLigence) [5],"T/C (tumor/control) ([3]; COMPOUND B 3.5 mg/kg twice daily, day 17) [%]","T/C (tumor/control) ([3]; COMPOUND B 3.5 mg/kg twice daily, day 22) [%]","pERK1/2 levels ([6]; 0.5 μM per agent, seen at 2 hrs, time course 2-48 hours)","pERK1/2 expression by 24 hours ([6]; 0.5 μM, 24 hours)",pMEK1/2 expression [7]
"CN1CCN(c2nc(C3=C(c4c[nH]c5ccccc45)C(=O)NC3=O)c3ccccc3n2)CC1 [AEB071, 3-(1H-indol-3-yl)-4-[2-(4-methyl-piperazin-1-yl)-quinazolin-4-yl]-1H-pyrrole-2,5-dione]",attenuated,delayed cell growth,near complete mean tumor stasis,92,52,18,3,progressed at the control pace,active,19,delayed cell growth,,,,,
"Cn1cnc2c(F)c(Nc3ccc(Br)cc3F)c(C(=O)NOCCO)cc21 [COMPOUND B, 6-(4-bromo-2-fluorophenylamino)-7-fluoro-3-methyl-3H-benzoimidazole-5-carboxylic acid (2-hydroxyethoxy)-amide]",,modest effect,,,,,,,active,57,modest effect,84,56,reduction in pERK1/2 levels,beginning to return,induction of pMEK1/2 expression
